According to paper PMC11392244, “Characterization of a unique catechol-O-methyltransferase as a molecular drug target in parasitic filarial nematodes” (PLOS Neglected Tropical Diseases, 2024):
“And” between values parts separate entries of the source, which are not always exact repeats. Equal values may be shown once. Read-outs that look alike come from different tables or passages of the source.

Legend:
[1] = test system: mammalian cells; conditions: cited from earlier work
[2] = test system: D. immitis microfilariae; experiment: In vitro efficacy against live D. immitis microfilariae (motility, completely immotile %); format: cell-based, Dirofilaria immitis
[3] = test system: DiMT protein; format: biochemical, Dirofilaria immitis

CO[C@@]12[C@H](COC(N)=O)C3=C(C(=O)C(C)=C(N)C3=O)N1C[C@H]1[C@@H]2N1C (some centres unmarked) [NSC56410]
IC50 ([1]; read-out: Cytotoxicity IC50, ref Zhang et al., [30]): 188 µM | Mean completely Immotile (%) ([2]; 25 µM, 0 h): 0% | Mean completely Immotile (%) ([2]; 25 µM, 24 h): 2.33% | Mean completely Immotile (%) ([2]; 25 µM, 48 h): 7.67% | Mean completely Immotile (%) ([2]; 25 µM, 72 h): 12.5% | Mean completely Immotile (%) ([2]; 25 µM, 96 h): 30.5% | Mean completely Immotile (%) ([2]; 25 µM, 120 h): 45% | Mean completely Immotile (%) ([2]; 50 µM, 0 h): 0% | Mean completely Immotile (%) ([2]; 50 µM, 24 h): 13% | Mean completely Immotile (%) ([2]; 50 µM, 48 h): 21.33% | Mean completely Immotile (%) ([2]; 50 µM, 72 h): 54.33% | Mean completely Immotile (%) ([2]; 50 µM, 96 h): 79.33% | Mean completely Immotile (%) ([2]; 50 µM, 120 h): 97.67% | Mean completely Immotile (%) ([2]; 75 µM, 0 h): 0% | Mean completely Immotile (%) ([2]; 75 µM, 24 h): 38.67% | Mean completely Immotile (%) ([2]; 75 µM, 48 h): 59.33% | Mean completely Immotile (%) ([2]; 75 µM, 72 h): 86% | Mean completely Immotile (%) ([2]; 75 µM, 96 h): 98.33% | Mean completely Immotile (%) ([2]; 75 µM, 120 h): 100% | Mean completely Immotile (%) ([2]; 100 µM, 0 h): 0% | Mean completely Immotile (%) ([2]; 100 µM, 24 h): 61% | Mean completely Immotile (%) ([2]; 100 µM, 48 h): 77.67% | Mean completely Immotile (%) ([2]; 100 µM, 72 h): 98% | Mean completely Immotile (%) ([2]; 100 µM, 96 h): 100% | Mean completely Immotile (%) ([2]; 100 µM, 120 h): 100% | EC50 ([2]; Dirofilaria immitis, 96 h, read-out: Anti-parasitic EC50 (μM), 96 h post-treatment): 32.1 µM | EC50 ([2]; read-out: Anti-parasitic EC50, 96 h post-treatment): 32.2 µM | Completely Immotile Microfilariae (%) ([2]; single experiments, 25 µM, 0 h): 0% | Completely Immotile Microfilariae (%) ([2]; single experiments, 25 µM, 24 h): 2% and 4% and 1% | Completely Immotile Microfilariae (%) ([2]; single experiments, 25 µM, 48 h): 8% and 10% and 5% | Completely Immotile Microfilariae (%) ([2]; single experiments, 25 µM, 72 h): 15% and 12.5% and 10% | Completely Immotile Microfilariae (%) ([2]; single experiments, 25 µM, 96 h): 35% and 29.5% and 27% | Completely Immotile Microfilariae (%) ([2]; single experiments, 25 µM, 120 h): 50% and 44% and 41% | Completely Immotile Microfilariae (%) ([2]; single experiments, 50 µM, 0 h): 0% | Completely Immotile Microfilariae (%) ([2]; single experiments, 50 µM, 24 h): 15% and 11.5% and 12.5% | Completely Immotile Microfilariae (%) ([2]; single experiments, 50 µM, 48 h): 23% and 21% and 20% | Completely Immotile Microfilariae (%) ([2]; single experiments, 50 µM, 72 h): 56% and 50% and 57% | Completely Immotile Microfilariae (%) ([2]; single experiments, 50 µM, 96 h): 80% and 76% and 82% | Completely Immotile Microfilariae (%) ([2]; single experiments, 50 µM, 120 h): 100% and 95% and 98% | Completely Immotile Microfilariae (%) ([2]; single experiments, 75 µM, 0 h): 0% | Completely Immotile Microfilariae (%) ([2]; single experiments, 75 µM, 24 h): 36% and 40% | Completely Immotile Microfilariae (%) ([2]; single experiments, 75 µM, 48 h): 55% and 60% and 63% | Completely Immotile Microfilariae (%) ([2]; single experiments, 75 µM, 72 h): 83% and 88% and 87% | Completely Immotile Microfilariae (%) ([2]; single experiments, 75 µM, 96 h): 100% and 95% | Completely Immotile Microfilariae (%) ([2]; single experiments, 75 µM, 120 h): 100% | Completely Immotile Microfilariae (%) ([2]; single experiments, 100 µM, 0 h): 0% | Completely Immotile Microfilariae (%) ([2]; single experiments, 100 µM, 24 h): 60% and 58% and 65% | Completely Immotile Microfilariae (%) ([2]; single experiments, 100 µM, 48 h): 75% and 78% and 80% | Completely Immotile Microfilariae (%) ([2]; single experiments, 100 µM, 72 h): 95% and 100% and 99% | Completely Immotile Microfilariae (%) ([2]; single experiments, 100 µM, 96 h): 100% | Completely Immotile Microfilariae (%) ([2]; single experiments, 100 µM, 120 h): 100% | effect on microfilariae ([2]; up to 120 h of culture): killing effect | Mean Percent Inhibition ([3]; 50 µM): 18.0% and 26.7% and 20.5% | Mean Percent Inhibition, Average ([3]; 50 µM): 21.7% | Mean Percent Inhibition ([3]; 100 µM): 26.6% and 33.3% and 21.3% | Mean Percent Inhibition, Average ([3]; 100 µM): 27.1% | Mean Percent Inhibition ([3]; 150 µM): 31.0% and 35.0% and 25.0% | Mean Percent Inhibition, Average ([3]; 150 µM): 30.3% | Mean Percent Inhibition ([3]; 200 µM): 34.6% and 41.9% and 31.9% | Mean Percent Inhibition, Average ([3]; 200 µM): 36.1% | Mean Percent Inhibition ([3]; 250 µM): 41.2% and 38.8% and 51.8% | Mean Percent Inhibition, Average ([3]; 250 µM): 43.9% | Mean Percent Inhibition ([3]; 300 µM): 48.3% and 48.6% and 46.0% | Mean Percent Inhibition, Average ([3]; 300 µM): 47.6% | Mean Percent Inhibition ([3]; 350 µM): 53.8% and 59.3% and 53.7% | Mean Percent Inhibition, Average ([3]; 350 µM): 55.6% | Mean Percent Inhibition ([3]; 400 µM): 62.5% and 63.8% | Mean Percent Inhibition, Average ([3]; 400 µM): 62.9% | IC50 ([3]; read-out: IC 50 (μM ± SEM)): 300 ± 2.5 µM

Ivermectin [reference compound]
IC50 ([1]; read-out: Cytotoxicity IC50, ref Tan et al., [31]): 37.4 µM | Completely Immotile Microfilariae (%) ([2]; 2.5 µM, 0 h): 0% | Mean completely Immotile (%) ([2]; 2.5 µM, 0 h): 0% | Completely Immotile Microfilariae (%) ([2]; 2.5 µM, 24 h): 1% and 2% | Mean completely Immotile (%) ([2]; 2.5 µM, 24 h): 1.7% | Completely Immotile Microfilariae (%) ([2]; 2.5 µM, 48 h): 1.5% and 2.5% and 2% | Mean completely Immotile (%) ([2]; 2.5 µM, 48 h): 2.0% | Completely Immotile Microfilariae (%) ([2]; 2.5 µM, 72 h): 2% and 2.5% and 3% | Mean completely Immotile (%) ([2]; 2.5 µM, 72 h): 2.5% | Completely Immotile Microfilariae (%) ([2]; 2.5 µM, 90 h): 3% and 4% and 4.5% | Mean completely Immotile (%) ([2]; 2.5 µM, 96 h): 3.8% | Completely Immotile Microfilariae (%) ([2]; 2.5 µM, 120 h): 5% and 5.5% and 7% | Mean completely Immotile (%) ([2]; 2.5 µM, 120 h): 5.83% | Mean completely Immotile (%) ([2]; 5 µM, 0 h): 0% | Completely Immotile Microfilariae (%) ([2]; 5.0 µM, 0 h): 0% | Mean completely Immotile (%) ([2]; 5 µM, 24 h): 2.3% | Completely Immotile Microfilariae (%) ([2]; 5.0 µM, 24 h): 2% and 3% | Mean completely Immotile (%) ([2]; 5 µM, 48 h): 3.7% | Completely Immotile Microfilariae (%) ([2]; 5.0 µM, 48 h): 3% and 4% | Mean completely Immotile (%) ([2]; 5 µM, 72 h): 5.0% | Completely Immotile Microfilariae (%) ([2]; 5.0 µM, 72 h): 5% and 4.5% and 5.5% | Completely Immotile Microfilariae (%) ([2]; 5.0 µM, 90 h): 7.5% and 7% and 8.5% | Mean completely Immotile (%) ([2]; 5 µM, 96 h): 7.7% | Mean completely Immotile (%) ([2]; 5 µM, 120 h): 15.0% | Completely Immotile Microfilariae (%) ([2]; 5.0 µM, 120 h): 15% and 12.5% and 17.5% | Completely Immotile Microfilariae (%) ([2]; 10 µM, 0 h): 0% | Mean completely Immotile (%) ([2]; 10 µM, 0 h): 0% | Completely Immotile Microfilariae (%) ([2]; 10 µM, 24 h): 3% and 4% | Mean completely Immotile (%) ([2]; 10 µM, 24 h): 3.3% | Completely Immotile Microfilariae (%) ([2]; 10 µM, 48 h): 5% and 6% | Mean completely Immotile (%) ([2]; 10 µM, 48 h): 5.7% | Completely Immotile Microfilariae (%) ([2]; 10 µM, 72 h): 7.5% and 8.5% | Mean completely Immotile (%) ([2]; 10 µM, 72 h): 7.8% | Completely Immotile Microfilariae (%) ([2]; 10.0 µM, 90 h): 25% and 28.5% and 30% | Mean completely Immotile (%) ([2]; 10 µM, 96 h): 27.8% | Completely Immotile Microfilariae (%) ([2]; 10 µM, 120 h): 50% and 53.5% and 53% | Mean completely Immotile (%) ([2]; 10 µM, 120 h): 52.2% | Mean completely Immotile (%) ([2]; 15 µM, 0 h): 0% | Completely Immotile Microfilariae (%) ([2]; 15.0 µM, 0 h): 0% | Mean completely Immotile (%) ([2]; 15 µM, 24 h): 3.8% | Completely Immotile Microfilariae (%) ([2]; 15.0 µM, 24 h): 3.5% and 4.5% | Mean completely Immotile (%) ([2]; 15 µM, 48 h): 6.2% | Completely Immotile Microfilariae (%) ([2]; 15.0 µM, 48 h): 6% and 6.7% | Mean completely Immotile (%) ([2]; 15 µM, 72 h): 11.0% | Completely Immotile Microfilariae (%) ([2]; 15.0 µM, 72 h): 10% and 12% and 11% | Completely Immotile Microfilariae (%) ([2]; 15.0 µM, 90 h): 30% and 37% and 33% | Mean completely Immotile (%) ([2]; 15 µM, 96 h): 33.3% | Mean completely Immotile (%) ([2]; 15 µM, 120 h): 72.3% | Completely Immotile Microfilariae (%) ([2]; 15.0 µM, 120 h): 70% and 75% and 72% | Mean completely Immotile (%) ([2]; 20 µM, 0 h): 0% | Completely Immotile Microfilariae (%) ([2]; 20.0 µM, 0 h): 0% | Mean completely Immotile (%) ([2]; 20 µM, 24 h): 11.2% | Completely Immotile Microfilariae (%) ([2]; 20.0 µM, 24 h): 10% and 12.5% and 11% | Mean completely Immotile (%) ([2]; 20 µM, 48 h): 15.7% | Completely Immotile Microfilariae (%) ([2]; 20.0 µM, 48 h): 15% and 17% | Mean completely Immotile (%) ([2]; 20 µM, 72 h): 26.0% | Completely Immotile Microfilariae (%) ([2]; 20.0 µM, 72 h): 25% and 30% and 23% | Completely Immotile Microfilariae (%) ([2]; 20.0 µM, 90 h): 50% and 65% and 49% | Mean completely Immotile (%) ([2]; 20 µM, 96 h): 54.7% | Mean completely Immotile (%) ([2]; 20 µM, 120 h): 90.3% | Completely Immotile Microfilariae (%) ([2]; 20.0 µM, 120 h): 90% and 94% and 87% | Mean completely Immotile (%) ([2]; 30 µM, 0 h): 0% | Completely Immotile Microfilariae (%) ([2]; 30.0 µM, 0 h): 0% | Mean completely Immotile (%) ([2]; 30 µM, 24 h): 27.7% | Completely Immotile Microfilariae (%) ([2]; 30.0 µM, 24 h): 25% and 30% and 28% | Mean completely Immotile (%) ([2]; 30 µM, 48 h): 43.0% | Completely Immotile Microfilariae (%) ([2]; 30.0 µM, 48 h): 40% and 46% and 43% | Mean completely Immotile (%) ([2]; 30 µM, 72 h): 56.0% | Completely Immotile Microfilariae (%) ([2]; 30.0 µM, 72 h): 50% and 60% and 58% | Completely Immotile Microfilariae (%) ([2]; 30.0 µM, 90 h): 80% and 85% and 88% | Mean completely Immotile (%) ([2]; 30 µM, 96 h): 84.3% | Mean completely Immotile (%) ([2]; 30 µM, 120 h): 95.3% | Completely Immotile Microfilariae (%) ([2]; 30.0 µM, 120 h): 95% and 98% and 93% | EC50 ([2]; read-out: Anti-parasitic EC50): 17.6 µM
